Values joined by “and” are separate entries in the source; they are usually repeats but may differ in a detail not shown here. Equal entries are not always repeated. *1 amine or outer side, *2 acyl side, *3 side chain or, on linkers, in order; H or OH if unused. Where a SMILES comes first, the peptide text is derived from it. Bridges are numbered along the chain shown (N, C = ends). [ ]: non-standard residue; d: D form. The star is where a group is joined. pTerphenylCO(4''-OnC5H11) = CCCCCOc1ccc(-c2ccc(-c3ccc(C(=O)*)cc3)cc2)cc1; Orn(4R-OH,5R-OH) = O=C([C@H](C[C@@H](O)[C@@H](O)N[*:3])N[*:1])[*:2]; hTyr(3S-OH,4S-OH) = N[C@H](C(=O)O)[C@H](O)[C@@H](O)c1ccc(O)cc1; Pro(3S-OH,4S-Me) = C[C@H]1CN[C@H](C(=O)O)[C@H]1O; Hyp = O=C(O)[C@@H]1C[C@@H](O)CN1
How the values were obtained:
[1] = test system: C. glabrata strains (WT, pdr1∆ or PDR1 rescue); test: Growth assays to assess compound efflux; assay type: cell-based; details: 50 µM (I-BET726 1 µM); 20 h
Description: Cells from a single colony were diluted in 0.85% NaCl before being counted using a Neubauer chamber. […] The effect of fluconazole was tested by titration on these strains under similar conditions.

[2] = test system: C. glabrata expressing humanized Bdf1 (Brd4 BDs); test: Growth inhibition in liquid media, humanized C. glabrata strains; details: 50 µM, Exp 1-3
Description: (§2) Growth on Liquid Media with C. glabrata Lab Strains: Cells were grown at 30 °C in SC+M+C‐U medium (SC medium with 5 mM methionine, 0.25 mM cysteine, without uracil) to an OD600 of 0.5–0.8. […] Plates were incubated at 30 °C and OD600 was measured using a Multiskan FC Microplate Photometer (Thermo Fisher).

CgBdf1 BD2 = CgBdf1 BD2 (Candida glabrata, UniProt Q6FWV7); test: biochemical; assay type: binding, C. glabrata; details: Fig 1D/2A original data; single experiments Exp1-3
[3] = test system: C. glabrata strains expressing WT and mutant Bdf1; test: Growth inhibition in liquid media, C. glabrata lab strains; details: Exp 1-3; for %Growth: 50 µM, WT BDF1-flag; for OD at 600 nm: Figure S4B
Description: as §2

CgBdf1 BD1 = CgBdf1 BD1 (Candida glabrata, UniProt Q6FWV7); test: HTRF assay, inhibition of H4ac4 peptide binding; design: species or system C. glabrata; details: Fig 1D/2A original data; single experiments Exp1-3
[4] = test system: C. albicans expressing WT Bdf1; test: Galleria fungal infection model, WT strain; assay type: in vivo, Galleria mellonella; design: key to survival event of one larva (1 = death 0 = no death): 1 = death; 0 = no death; details: Figure 6B
Description: (§1) Galleria mellonella larvae were purchased from Decathlon (La Tronche, France). They were selected in the late larval stages weighing between 300 and 400 mg. Groups of 10 larvae were injected into the right or left last pro‐leg with 10 µl of either PBS, C. albicans suspensions or antifungal drug using an insulin syringe (BDUltra‐Fine 0.3 ml). C. albicans suspensions of the WT and humanized Bdf1 strains were adjusted to 10^6 cells larva^−1. Antifungal drugs (anidulafungin 5 mg kg^−1 or I‐BET726 66 or 44 mg kg^−1) were injected once 30 min before fungal infection. An infected control group received the C. albicans inoculum and the solvent of the drug. A non‐infected control group received only PBS. After inoculation, larvae were placed in Petri dishes and incubated in the dark at 37 °C. The larvae were monitored for 5 days, and survival outcome was determined. For experiments performed at the lower (44 mg kg^−1) dose of IBET‐726, the difference in protection against infection with humanized versus WT C. albicans strains was more evident using the survival data at 40 h rather than at 100 h post‐infection. Larvae were considered dead when no response was observed following touch. All experiments were performed at least 3 times independently. The significance of survival was assessed by a Log‐rank (Mantel‐Cox) test in GraphPad Prism 10.

[5] = test system: C. albicans expressing humanized Bdf1; test: Galleria fungal infection model, humanized strain; assay type: in vivo, Galleria mellonella; design: key to survival event of one larva (1 = death 0 = no death): 1 = death; 0 = no death; details: Figure 6C; Bdf1-hBD* strain; Time 8 hours
Description: as §1

[6] = biological target: S. cerevisiae histone H2A variant H2A.Z fused to LgBiT (UniProt Q12692); test: NanoBiT assay in live S. cerevisiae cells; details: parent: est. 1.0; read off a plot

Chain of CgBdf1 BD1 (Q6FWV7 entry or part of it): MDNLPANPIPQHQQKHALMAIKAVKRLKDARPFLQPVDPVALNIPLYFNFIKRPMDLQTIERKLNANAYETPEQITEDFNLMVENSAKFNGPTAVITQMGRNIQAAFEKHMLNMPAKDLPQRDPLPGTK
Chain of CgBdf1 BD2 (Q6FWV7 entry or part of it): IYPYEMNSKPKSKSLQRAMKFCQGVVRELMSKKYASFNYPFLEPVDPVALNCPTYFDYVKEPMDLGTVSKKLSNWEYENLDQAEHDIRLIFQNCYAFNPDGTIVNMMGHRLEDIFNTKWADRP

Cc1sc2c(c1C)C(c1ccc(Cl)cc1)=N[C@@H](CC(=O)OC(C)(C)C)c1nnc(C)n1-2 [JQ1, reference compound]
activity against PDR1 deletion strain versus WT/rescue [1]: increased efficacy | %Growth ([2]; Fig 3D, humanized BDF1-flag): 46.0% and 39.6% and 43.2% | %Growth ([2]; Fig 3E, BDF1-hBD1-flag): 83% and 74% and 78% | %Growth ([2]; Fig 3E, BDF1-hBD2-flag): 91% and 86% | %Growth ([2]; Fig 3E, humanized BDF1-flag): 46% and 40% and 43% | pIC50 CgBD2 (CgBdf1 BD2): 6.15 and 6.10 and 6.13 | %Growth ([3]; Fig 3D): 112.7% and 106.1% and 114.4% | %Growth ([3]; Fig 3E): 113% and 106% and 114% | OD at 600 nm ([3]; WT BDF1 strain): 0.392 and 0.386 and 0.385 | OD at 600 nm ([3]; bdf1-bd1Δ strain): 0.328 and 0.347 and 0.329 | OD at 600 nm ([3]; bdf1-bd2Δ strain): 0.195 and 0.225 and 0.183 | pIC50 CgBD1 (CgBdf1 BD1): 5.18 and 5.05 and 5.03

CCCCCOc1ccc(-c2ccc(-c3ccc(C(=O)N[C@H]4C[C@@H](O)[C@@H](O)NC(=O)[C@@H]5[C@@H](O)[C@@H](C)CN5C(=O)[C@H]([C@@H](C)O)NC(=O)[C@H]([C@H](O)[C@@H](O)c5ccc(O)cc5)NC(=O)[C@@H]5C[C@@H](O)CN5C(=O)[C@H]([C@@H](C)O)NC4=O)cc3)cc2)cc1 [anidula-fungin] ({pTerphenylCO(4''-OnC5H11)}-[Orn(4R-OH,5R-OH)]T[Hyp][hTyr(3S-OH,4S-OH)]T[Pro(3S-OH,4S-Me)]; lactam 1-C)
survival event of one larva (1 = death 0 = no death) ([4]; Time 10 hours): 1 | survival event of one larva (1 = death 0 = no death) ([4]; Time 35 hours): 1 | survival event of one larva (1 = death 0 = no death) ([4]; Time 50 hours): 1

CCCCCOc1ccc(-c2ccc(-c3ccc(C(=O)N[C@H]4C[C@@H](O)[C@@H](O)NC(=O)[C@@H]5[C@@H](O)[C@@H](C)CN5C(=O)[C@H]([C@@H](C)O)NC(=O)[C@H]([C@H](O)[C@@H](O)c5ccc(O)cc5)NC(=O)[C@@H]5C[C@@H](O)CN5C(=O)[C@H]([C@@H](C)O)NC4=O)cc3)cc2)cc1 [anidulafungin] ({pTerphenylCO(4''-OnC5H11)}-[Orn(4R-OH,5R-OH)]T[Hyp][hTyr(3S-OH,4S-OH)]T[Pro(3S-OH,4S-Me)]; lactam 1-C)
survival event of one larva (1 = death 0 = no death) [5]: 1

C. glabrata Bdf1-SmBiT expressed in S. cerevisiae Y166F; Y343F
ratio to parent [6]: 0.27

Reference: PMC11904993, “Humanized Candida and NanoBiT Assays Expedite Discovery of Bdf1 Bromodomain Inhibitors With Antifungal Potential” (Advanced Science, 2025)
